Measured values published in paper PMC9143004, “Antioxidant Properties and Aldehyde Reactivity of PD-L1 Targeted Aryl-Pyrazolone Anticancer Agents” (Molecules, 2022).
“And” between values parts separate entries of the source, which are not always exact repeats. Identical values can stand only once. Like-named read-outs stand apart in the source and are kept apart here.

What was measured:
[1] = tested on: CTLL-2 cells; test: Reactivation of proliferation of CTLL-2 cells; type: cell-based; settings: read-out: Proliferation (IC50): capacity to reactivate proliferation of CTLL-2 cells
[2] = DPPH free radical scavenging EPR assay; settings: read-out: DPPH EC50 (concentration reducing the EPR signal by 50%); DPPH 100 μM; test compound 2–90 μM
Description: The antioxidant activity of the compounds was characterized for their free radical scavenging activities using DPPH (100 μM), chosen as a model radical. In this case, we monitor the decay in the DPPH EPR signal intensity which occurs when EPR-silent diamagnetic hydrazine counterparts are formed from DPPH. The first line DPPH signal intensity is then recorded in the presence of increasing amount of the test compound (2–90 μM). Representative dose-dependent variations of the EPR signal are shown in Figure 2a, for compounds EDA, 2 and 4. They all show the characteristic five-line EPR spectrum of DPPH, due to the hyperfine coupling with two equivalent nitrogens, and for which the intensity is proportional to the DPPH concentration, and its decay in the presence of an antioxidant. […] From these curves, the intensity of the EPR signal can be measured and its decay quantified (Figure 2b).
For each compound, the percentage of inhibition of the EPR signal was plotted as a function of the compound concentration, and the fitted curves used to determine EC50 values. The same procedure has been used to evaluate various types of antioxidant compounds [29]. […] In this test, the compounds rank in the order EDA, 2, 3 > 5 > 1 > 4.
(§1) CW-EPR experiments were performed with an X-band Bruker Elexsys E500 spectrometer (Bruker BioSpin GmbH, Rheinstetten, Germany) operating at 9.86 GHz. CW spectra were recorded at room temperature with a microwave power of 5.024–10.02 mW and a modulation amplitude of 1–2 G that assumes non-saturation conditions. The antioxidant activity was monitored using DPPH (1,1-diphenyl-2-picrylhydrazyl) at a final concentration of 100 µM as free radical scavenging molecule and DMPO (5,5-dimethyl-1-pyrroline N-oxide) as spin trap agent for the spin trapping experiments. The DMPO solution was freshly distillated prior to use at a final concentration of 1 mM or 2 mM. The solution mixture was filled into a glass capillary of 50 μL, which was in turn, placed in 4 mm quartz EPR tubes prior to analysis.
(§2) The percent inhibition of DPPH was calculated according to the following equation: I (%) = ((I0 − I)/I0) ∗ 100 where I0 is the area of the EPR spectrum of DPPH (control sample), and I is the area of the EPR spectrum of DPPH with antioxidant compound. The rate constant for the reaction of antioxidant compounds with ^•OCH3 is expressed by the following equation: 1/Ra = 1/Rf + (kr [AH]/(ka [DMPO] × Rf). Rf, and Ra indicate EPR signal area (double integration of EPR signal) of ^•OCH3, DMPO/^•OCH3, respectively. ka and [DMPO] are constants, and a plot of 1/Ra vs. [AH] (concentration of antioxidant compound) gives a straight line with 1/Rf as an intercept and kr/(ka[DMPO] Rf) as the slope. In these circumstances, the rate constant for the reaction of ^•OCH3 with antioxidant compounds (kr) can be expressed by the following equation: kr = (ka [DMPO] × slope)/interception.

[3] = DMPO spin-trapping EPR assay under Fenton conditions in methanol; settings: DMPO 1 or 2 mM, •OCH3 radical
Description: In this case, we monitor the formation of an oxygen centered radical generated in the presence of the spin trapping agent DMPO under Fenton conditions (hydrogen peroxide plus ferrous ions). For practical reasons (compound solubility), experiments were carried out using methanol as a solvent and therefore, the methoxy radical is monitored. A typical six-line EPR signal is recorded, corresponding to the DMPO/^•OCH3 radical, with the characteristic hyperfine coupling constants aN = 13.9 G and aH = 8.3 G. Here again, we can measure the decay of the EPR signal in the presence of the different antioxidant compounds and compare their relative capacity to reduce the signal. Typical concentration-dependent response curves are presented in Figure 3a for compounds EDA, 2 and 4. All six compounds can induce a decrease of the EPR signal but with various degrees of efficacy (Figure 3b). Here again, the results were quantified through the measure of the area of the EPR signal as a function of the compound concentration, to allow the calculation of the reaction constants for each compound. […] Proper dose-response curves were constructed and fitted to determine the reaction rate constant (kr) for each compound, as shown in Figure 3c and the kr values are collated in Table 2.
as §1, §2

[4] = target: recombinant human PD-L1 (Homo sapiens, UniProt Q9NZQ7); test: PD-L1 binding by microscale thermophoresis (MST); settings: for Kd: affinity for PD-L1 measured by MST
[5] = target: PD-L1/PD-1 interaction (Homo sapiens, UniProt Q9NZQ7); test: Disruption of the PD-L1/PD-1 interaction in cells, FRET assay; type: cell-based; settings: read-out: Bioactivity (IC50): capacity to disrupt the PD-L1/PD-1 interaction in cells
[6] = Solubility in the aqueous reaction medium; type: physicochemical; settings: methanol:ammonium formate buffer 5 mM pH 4.5 (40:60)
Description: To begin with, each compound was incubated with an equimolar amount of 5fU for 180 min at 37 °C in a mixture of methanol and ammonium formate buffer 5 mM, pH 4.5 (40:60, v:v). […] In each case, the reaction mixture was introduced into the mass spectrometry equipment after a dilution in methanol to achieve a final concentration of 10 pmol/µL. The formation of drug-uracil adducts was monitored and unambiguously characterized by HRMS. […] There was no solubility issue with compound. The lack of reactivity is attributable to its adamantane unit which deactivates the adjacent reactive position or produces a steric hindrance. Otherwise, the other four compounds can react easily with 5fU to generate mono- and bis-adducts, as represented in Figure 4 with compound 2. In all cases, the observed molar mass and ring double bound value (RDB) value for the different species coincide perfectly with the expected mass (Δppm < 5 ppm) and RDB value (Table 3).

Chain of PD-L1/PD-1 interaction (Q9NZQ7 19-290): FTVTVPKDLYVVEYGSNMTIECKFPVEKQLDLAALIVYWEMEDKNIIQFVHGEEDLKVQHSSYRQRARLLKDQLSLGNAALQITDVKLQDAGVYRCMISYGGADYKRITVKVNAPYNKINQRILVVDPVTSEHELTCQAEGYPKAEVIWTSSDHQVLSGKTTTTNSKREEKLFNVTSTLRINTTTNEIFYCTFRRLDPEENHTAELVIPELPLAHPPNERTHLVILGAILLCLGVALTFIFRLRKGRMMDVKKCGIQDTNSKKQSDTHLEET
Chain of recombinant human PD-L1 (Q9NZQ7 19-290): as above

Row | Compound | IC50 ([1]; Mus musculus, CTLL-2) [nM] | EC50 [2] | DMPO kr (reaction rate constant) [3] | Kd [4] [nM] | IC50 [5] [nM] | Activity toward PD-L1 ([4]; statement in the discussion) | IC50 ([1]; CTLL-2 cells) [nM] | Solubility in the aqueous medium [6]
1 | COc1ccccc1C1=NN(c2ccc(Cl)cc2Cl)C(=O)C1 [Compound 3] | 79 ± 7 | 34000 nM | 1.88 10^11 M^−1 s^−1 | – | – | – | – | –
2 | CC1=NN(c2ccc(Cl)cc2Cl)C(=O)C1 [Compound 2] | 53 ± 11 | 36500 nM | 1.93 10^11 M^−1 s^−1 | 34 ± 3 | 23 ± 3 | – | – | –
3 | CC1=NN(c2ccccn2)C(=O)C1 [Compound 1] | 102 ± 8 | 70600 nM | 1.27 10^11 M^−1 s^−1 | 77 ± 7 | 92 ± 9 | – | – | –
4 | CC1=NN(c2ccccc2)C(=O)C1 [EDA, 1-phenyl-3-methyl-5-pyrazolone, reference compound] | – | 35800 nM | 2.59 10^11 M^−1 s^−1 | – | – | totally inactive | – | –
5 | COc1nc(OCc2cccc(-c3ccccc3)c2C)ccc1CNCCNC(C)=O [BMS-202, reference compound] | – | – | – | – | – | – | 53 ± 17 | –
6 | O=C1CC(C23CC4CC(CC(C4)C2)C3)=NN1c1ccccc1Cl [Compound 5] | 57 ± 9 | 59700 nM | 1.25 10^11 M^−1 s^−1 | 12 ± 2 | 23 ± 6 | – | – | –
7 | Nivolumab: reference listed in Table 1; the paper does not describe it further | – | – | – | – | – | – | 58 ± 3 | –
8 | O=C1CC(c2ccc(Cl)cc2)=NN1c1ccc(Cl)cc1Cl [Compound 4] | 124 ± 7 | 97000 nM and 97600 nM | 1.04 10^11 M^−1 s^−1 | 7 ± 3 | 3 ± 2 | – | – | limited solubility
